In US5955520A, “Photochromic indeno-fused naphthopyrans” (PPG Industries, Inc., priority 1996, dated 1999):

Assays:
[1] = UV/Visible spectrophotometer test of photochromic test squares (lambda max, molal absorptivity); format: physicochemical; conditions: for λ max Vis (major) / λ max Vis (minor): activated (colored) form; for λ max Vis (major): major peak; for λ max Vis (major) / λ max Vis (minor) / Molal Absorpt. (ε) / λ max UV: test square; for λ max Vis (minor): minor peak; for Molal Absorpt. (ε): at λ max in the UV, ε=A/bm; for λ max UV: ultraviolet wavelength closest to the visible spectrum
Protocol: (§1) Testing was done with the Example 1 and Comparative Example 1 photochromic naphthopyrans incorporated into polymeric samples by the following method. The quantity of naphthopyran calculated to yield a 1.5 times 10^-3 molal solution was added to a flask containing 50 grams of a monomer blend of 4 parts ethoxylated bisphenol A dimethacrylate (BPA 2EO DMA), 1 part poly(ethylene glycol) 600 dimethacrylate, and 0.033 weight percent 2,2'-azobis(2-methyl proprionitrile) (AIBN). The naphthopyran was dissolved into the monomer blend by stirring and gentle heating, if necessary. After a clear solution was obtained, it was poured into a flat sheet mold having the interior dimensions of 2.2 mm×6 inches (15.24 cm)×6 inches (15.24 cm). The mold was sealed and placed in a horizontal air flow, programmable oven set to increase the temperature from 40° C. to 95° C. over a 5 hour interval, hold the temperature at 95° C. for 3 hours and then lower it to 60° C., for at least 2 hours before the end of the curing cycle. After the mold was opened, the polymer sheet was cut using a diamond blade saw into 2 inch (5.1 centimeters) test squares.
The photochromic test square polymerizates of Example 1 and Comparative Example 1 prepared in Part A were tested in a UV/Visible spectrophotometer to determine the lambda (λ) max (Vis) and the lambda max (UV) wavelengths. The lambda max (Vis) is the wavelength of the visible spectrum at which the maximum absorption of the activated (colored) form of the photochromic compound in a test square occurs. The lambda max (UV) is the wavelength of the ultraviolet range closest to the visible spectrum at which the absorption of the photochromic compound occurs.
The molal absorptivity or molal extinction coefficient (ε) reported in Table 2 is equal to the absorbance of the photochromic compound in a test square at the λ max in the UV (A) divided by the thickness of the test square in centimeters (b) multiplied by the concentration of the photochromic compound in the test square in moles per kilogram (m) according to the formula: ε=A/bm

[2] = photochromic response rates on an optical bench (test squares); format: physicochemical; conditions: for ΔOD @ Saturation: UV exposure continued for 20 minutes; for ΔOD @ Saturation / Sensitivity ΔOD/min: polymer test square, 75° F.; for Sensitivity ΔOD/min: first five (5) seconds of UV exposure, expressed per minute, 1.5 times 10^-3 molal; for Bleach Rate T 1/2: time for absorbance to reach one half the highest absorbance after removal of activating light, room temperature (75° F., 23.9° C.)
Protocol: as §1
The photochromic test squares of Part A were tested for photochromic response rates on an optical bench. Prior to testing on the optical bench, the photochromic test squares were exposed to 365 nanometer ultraviolet light for about 15 minutes to activate the photochromic compounds and then placed into a 76° C. oven for about 15 minutes to bleach the photochromic compounds. The test squares were then cooled to room temperature, exposed to fluorescent room lighting for at least 2 hours and then kept covered for at least 2 hours prior to testing on an optical bench maintained at 75° F. (23.90° C.).
The optical bench comprises a 150 watt Xenon arc lamp, a tungsten lamp, power supplies for both lamps, condensing lenses as needed to maintain collimated light beams from both lamps, a remote controlled shutter, a copper sulfate bath acting as a heat sink for the arc lamp, a Schott WG-320 nm cut-off filter which removes short wavelength radiation, neutral density filter(s), a sample holder in which the sample to be tested is inserted, a photopic filter, light detector, and radiometer assembly, a strip chart recorder, and a means for maintaining the alignment of the aforestated components during testing.
Change in optical density (Δ OD) of a sample was determined by inserting a photochromic test sample in the bleached state into the sample holder, adjusting the transmittance scale to 100%, opening the shutter from the Xenon lamp to provide ultraviolet radiation to change the sample from the bleached state to an activated (darkened) state, measuring the transmittance through the sample. The transmittance was measured by directing a beam of light from the tungsten lamp at a small angle normal to the surface of the sample, through the sample, and to a photopic filter, light detector and radiometer assembly. The photopic filter passes wavelengths such that the detector mimics the response of the human eye and produces output signals that are processed by the radiometer. The change in optical density was calculated according to the formula Δ OD=log(100/%Ta) where %Ta is the percent transmittance in the activated state and the logarithm is to the base 10.
The Δ OD/Min, which represents the sensitivity of the photochromic compound's response to UV light, was measured over the first five (5) seconds of UV exposure, then expressed on a per minute basis. The saturation optical density (OD) was taken under identical conditions as the Δ OD/Min, except UV exposure was continued for 20 minutes. The lambda max (Vis) is the wavelength in the visible spectrum at which the maximum absorption of the activated (colored) form of the photochromic compound in the test square occurs. […]

[3] = in comparison to Comparative Example (CE) 1

| λ max Vis (major) [1] [nm] | λ max Vis (minor) [1] [nm] | Molal Absorpt. (ε) [1] | molal absorptivity (ε) in the UV spectrum (in words) ([1]; in comparison to CE 1) | λ max UV [1] [nm] | bleach rate, i.e., fade rate (in words) [2] | ΔOD @ Saturation [2] | Sensitivity ΔOD/min [2] | sensitivity, i.e., coloration rate (in words) [2, 3] | Δ OD at saturation, i.e., activated intensity (in words) [2, 3] | Bleach Rate T 1/2 [2] [min] | SMILES | λ max UV and λ max Vis of the major peak (in words) ([1]; in comparison to CE 1, bathochromic shift) |
| --- | --- | --- | --- | --- | --- | --- | --- | --- | --- | --- | --- | --- |
| 536 | 425 | 12,218 | higher molal absorptivity | 360 | acceptable bleach rate | 1.0 | 0.34 ΔOD/min | greater sensitivity | higher Δ OD at saturation | 5.63 | CCOC(=O)CC1(O)c2ccccc2-c2c1c1c(c3ccccc23)OC(c2ccccc2)(c2ccccc2)C=C1 (stereo not shown) [Example 1, 3,3-diphenyl-13-hydroxy-13-(2-oxo-2-ethoxyethyl)-1H-indeno[2,1-f]naphtho[1,2-b] pyran] | higher λ max UV and λ max Vis of the major peak |
| 482 | 407 | 5709 |  | 346 |  | 0.68 | 0.19 ΔOD/min |  |  | 3.83 | COC(=O)c1c2c(c3ccccc3c1-c1ccccc1)OC(c1ccccc1)(c1ccccc1)C=C2 [CE 1, 2,2-diphenyl-5-methoxycarbonyl-6-phenyl-[2H]-naphtho[1,2-b]pyran, reference compound] |  |
